Reference: patent publication US20160193162A1 (TIANJIN TAIPU PHARMACEUTICAL SCIENCE & TECHNOLOGY …, priority 2013, published 2016)
Like-named read-outs stand apart in the source and are kept apart here.

Key:
[1] = system: brain nerve cells of an adult rat; settings: cited from earlier work
[2] = I-form crystal purity by DSC of raw material after pulverization, grinding, tabletting; type: physicochemical
Source text: Change of the crystalline I-form raw material in pulverization, grinding, and tabletting (at a pressure of 10 kg) was detected by DSC (see FIGS. 1-4).

[3] = stability in the process: crystal form purity (DSC) and relevant substances (HPLC); type: physicochemical; settings: stage of the manufacturing process
Source text: Referring to the aforementioned test 6, tablets were manufactured according to formulation and process with hydroxyproplyl methyl cellulose and polyvinylpyrrolindone k30 in a concentration of 15% as a protective agent.
1) Stability in the process: crystal form purity of the tablets was detected using DSC method with crystal forms and relevant substances as evaluation indexes. Regarding detection of relevant substances, HPLC method was adopted using imported drug as a standard.

[4] = test on influencing factors (high temperature, high humidity); type: physicochemical
Description: 2) Test on influencing factors: we investigated in combination with formulations of the present invention: the samples were allowed to stand in an open state for 30 days under the conditions of a high temperature of 60° C., a high humidity of RH 92%, and both high temperature and high humidity (40° C., RH75%), respectively.

[5] = solubility of crystalline I-form agomelatine in solvents; type: physicochemical
[6] = powder diffraction of sample tablets after acceleration; type: physicochemical; settings: sample tablets accelerated for two months
Source text: Chinese patent CN1101704763A recites a preparation method of the I-form crystals. […] Changes in crystal forms, on the one hand may result in infringement, and on the other hand may further lead to inconsistency in bioavailability of drugs. Therefore, it is very important to solve the problem of stability of crystal forms during the processes of the tablet manufacture and preservation.

Row | Compound | cell proliferation and neuronal regeneration in hippocampal ventral dentate gyrus ([1]; acute or subacute administration (4 hours or nine weeks)) | cell proliferation and neuronal regeneration in hippocampal ventral dentate gyrus ([1]; long-term (three weeks) administration) | I-form crystal purity (%) detected by DSC ([2]; after grinding) [%] | I-form crystal purity (%) detected by DSC ([2]; after pulverization) [%] | I-form crystal purity (%) detected by DSC ([2]; after tabletting at a pressure of 10 kg) [%] | I-form crystal purity (%) detected by DSC ([2]; raw material, untreated) [%] | Crystal form purity ([3]; DSC) | Relevant substances ([3]; HPLC) [%] | Crystal form purity % ([4]; 0 day) [%] | Crystal form purity % ([4]; 10 days at a high humidity (RH 92%), open state) [%] | Crystal form purity % ([4]; 10 days at a high temperature (60° C.), open state) [%] | Crystal form purity % ([4]; 10 days at both high temperature and high humidity (40° C., RH75%), open state) [%] | solubility ([5]; in DMSO) | solubility ([5]; in acetonitrile) | solubility ([5]; in ethanol) | solubility ([5]; in methanol) | solubility ([5]; in water) | crystal form by powder diffraction [6]
1 | COc1ccc2cccc(CCNC(C)=O)c2c1 [Agomelatine, agomelatine] | no similar situation occurred | increase cell proliferation and neuronal regeneration | – | – | – | – | – | – | – | – | – | – | – | – | – | – | – | –
2 | COc1ccc2cccc(CCNC(C)=O)c2c1 [agomelatine] | – | – | 97.5 | 90.0 | 74.3 | 100 | 100 | 0.32 | 100 | 80 | 65 | 35 | very soluble | very soluble | very soluble | very soluble | almost insoluble | almost completely converted to the II form
